Data set [1] has as its system human lymphoblastic leukemia cell line (CCRF-CEM). The experiment in a line: in vitro cytotoxicity, PrestoBlue assay. The class given is cell-based. As to conditions: 72-hr incubation; mean ± STDEV of three to six experiments; read-out: IC50 CCRF-CEM. A digest of the protocol: (§1)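 Cells exposed to compounds for 72 hr, then viability read by PrestoBlue after 1-2 hr at 37° C, absorbance 570 and 600 nm.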

The subject of data set [2] is human SCLC H526 xenografts. The experiment in a line: tumor growth in xenograft-bearing nude mice. As to conditions: for tumor size: micelle formulation (Kolliphor/TWEEN 80/PEG400/ethanol/D5W), BO-2768 at 20 mg/kg twice daily, FIG. 12, panel A. The format is in vivo. The method, then:
Athymic nude mice bearing the nu/nu gene were obtained from the National Laboratory Animal Center (Taipei, Taiwan). Male nude mice (6 weeks or older weighing 20-24 g or more) were used for all human tumor xenografts. The tested compounds were intravenously administered through tail vein. Tumor volume was determined by measuring the length x width x height (or width) with calipers. […] For tumor-bearing nude mice during the course of the experiment, the % body weight changes refer to: (the total weight on reading day/the total weight on day treatment started)×100.
In all experiments, the tumor cells were subcutaneously implanted in nude mice, and the BO-2590L was administered via tail vein when the tumor size reaching approximate 100 mm^3. […]
To confirm the therapeutic activity of BO-2590L, comparative experiments carried out by known chemotherapeutic agents, such as vatanalib and cisplatin, were also performed. Briefly, the H526 xenograft-bearing mice were divided into 4 groups which were treated with vehicle, BO-2590L (10 mg/kg, QD×9), vatalanib (100 mg/kg, QD×9), and cisplatin (4 mg/kg, Q2D×3), respectively. Results are illustrated in FIG. 11.
Results are illustrated in FIGS. 12 and 13.

The subject of data set [3] is small cell lung cancer H526. As to the kind of experiment: in vitro cytotoxicity, PrestoBlue assay. The format is cell-based, human. As to conditions: read-out: IC50 H526.
The subject of the next data set is pancreatic cancer PacaS1. The experiment in a line: in vitro cytotoxicity, PrestoBlue assay. To be noted: Table 2. The class given is cell-based, human. The method, boiled down: as §1
Data set [4] concerns non-small cell lung cancer H460. The experiment in a line: in vitro cytotoxicity, PrestoBlue assay. The class given is cell-based, human. As to conditions: Table 2. A digest of the protocol:
as §1

The test system of data set [5] is vinblastine-resistant sub-cell line (CCRF-CEM/VBL). As to the kind of experiment: in vitro cytotoxicity, PrestoBlue assay. As to conditions: for IC50: 72-hr incubation, mean ± STDEV of three to six experiments, read-out: IC50 CEM/VBL; for resistance factor (IC50 CEM/VBL vs IC50 of the parent cell line): number in brackets. The format is cell-based, human. The method, boiled down:
as §1

In a further data set the test system is colon cancer HCT-116. The experiment in a line: in vitro cytotoxicity, PrestoBlue assay. The class given is cell-based, human. To be noted: Table 2. A digest of the protocol:
as §1

A further data set has as its system pEGFP-N1 plasmid DNA. As to the kind of experiment: DNA cross-linking, alkaline agarose gel electrophoresis. The class given is biochemical. To be noted: FIG. 1; for formation of DNA interstrand crosslinks: 1-20 μM, 37° C., 2 hrs. As for the experimental part: In the present example, BO-2590, BO-2577 (Formula I-A) and BO-2698, BO-2755, BO-2762 and BO-2768 (Formula I-B) were tested for their DNA crosslinking activity, in which the cross-linking was analyzed by alkaline agarose gel electrophoresis. In brief, purified pEGFP-N1 plasmid DNA (1,500 ng) was mixed with various concentrations (1-20 μM) of the tested compounds in 40 μL binding buffer (3 mM sodium chloride/1 mM sodium phosphate, pH 7.4, and 1 mM EDTA). The reaction mixture was incubated at 37° C. for 2 hrs. At the end of reaction, the plasmid DNA was linearized by digestion with BamHI and followed by precipitation with ethanol. The DNA pellets were dissolved and denatured in alkaline buffer (0.5 N NaOH-10mM EDTA). An aliquot of 20 μL of DNA solution (1,000 ng) was mixed with 4 μL of 6× alkaline loading dye and then electrophoretically resolved on a 0.8% alkaline agarose gel with NaOH-EDTA buffer at 4° C. The electrophoresis was carried out at 18V for 22 h. After staining the gels with an ethidium bromide solution, the DNA was visualized under UV light. Results are illustrated in FIG. 1.

The next data set relates to γ-H2AX. As to the kind of experiment: immunohistochemical staining of tumor xenograft sections, DNA damage marker. The format is in vivo, nude mice. As to conditions: FIG. 16, panel B. As for the experimental part: Tumor xenograft tissue sections on the slides were deparaffinized in xylene twice for 7 min each time. The slides were then rehydrated in graded ethanol, serially from 100% to 70%, followed by rinsing in dH2O. Antigen retrieval was performed using citrate buffer (0.01M, pH 6.0) with incubation in a cooker for 50 mins followed by ambient temperature cooling for 30 min. and then dH2O rinsing. Later slides were subjected to immunohistochemical (IHC) staining with primary antibodies (anti-rabbit CD31 antibody and anti-mouse γ-H2AX antibody) obtained from Abeam® following the manufacturer's instructions (Novolink Polymer Detection system, Leica Biosystems, Wetzlar, Germany).^11 After IHC processing, the slides were scanned digitally using the Panoramic 250 Flash II whole slide scanner and analyzed by 3[…] Panoramic viewer software (3[…] Ltd., Budapest, Hungary).
As BO-2590L is a DNA damaging agent, we thus investigated the effect of BO-2590L on the level of a DNA damage marker, γ-H2AX, via the use of immunohistochemical staining.

The subject of a further data set is endothelial cells. As to the kind of experiment: transwell migration assay. The format is cell-based. To be noted: 8 hours; FIG. 4, panel A. The method, then:
In the present example, we explored whether compound BO-2590 was able to suppress the cell migration using transwell migration assay.
Briefly, the endothelial cells were placed on the upper layer of a cell permeable membrane and a solution containing BO-2590 was placed below the cell permeable membrane. Following an incubation period (8 hours), the cells that had migrated through the membrane were stained and counted under a fluorescence microscopy.

Data set [6] in a line: body weight changes of xenograft-bearing nude mice. The class given is in vivo. To be noted: for deleterious effects on the bodyweight of the test animals: micelle formulation, FIG. 12, panel B. The method, then: Athymic nude mice bearing the nu/nu gene were obtained from the National Laboratory Animal Center (Taipei, Taiwan). Male nude mice (6 weeks or older weighing 20-24 g or more) were used for all human tumor xenografts. The tested compounds were intravenously administered through tail vein. Tumor volume was determined by measuring the length x width x height (or width) with calipers. The vehicle used for the tested compounds was normal saline (0.9% NaCl isotonic solution). For tumor-bearing nude mice during the course of the experiment, the % body weight changes refer to: (the total weight on reading day/the total weight on day treatment started)×100.

Structures are written as SMILES. Like-named read-outs stand apart in the source and are kept apart here.

In the case of `Cc1c(CO)c(CO)c2c3ccccc3c(N3CCC(N4CCCCC4)CC3)nn12` [BO-2590, (6-([1,4′-Bipiperidin]-1′-yl)-3-methylpyrrolo[2,1-α]phthalazine-1,2-diyl)dimethanol], the IC50 in [1] is 230 ± 30 nM; in [3] (Table 2), 14 ± 4 nM; in data set [4], 600 ± 110 nM; in data set [5], 250 ± 40 nM; in the data set on colon cancer HCT-116 it was 400 ± 90 nM. Further, the tumor size entry in data set [2] was “as effective as irinotecan and cisplatin in reducing the tumor size”. The “IC50 Paca SI” value with pancreatic cancer PacaS1 was 300 ± 80 nM. Also, the “resistance factor (IC50 CEM/VBL vs IC50 of the parent cell line)” value in [5] is listed as 1.09 ×. In addition, the “formation of DNA interstrand crosslinks” value with pEGFP-N1 plasmid DNA is given as “induced DNA interstrand crosslinks”. The “cross-linker strength compared with melphalan” value in the data set with pEGFP-N1 plasmid DNA was “relatively stronger cross-linker than that of melphalan”. The “γ-H2AX signals, quantitative analysis” value with γ-H2AX is reported as “time-dependently increased in γ-H2AX signals”. The cell migration result in the data set on endothelial cells is given as “impairment in cell migration”. In data set [6] (H526 xenograft mice), the “deleterious effects on the bodyweight of the test animals” value is recorded as “none”.

With `Cc1c(CO)c(CO)c2c3cc4ccccc4cc3c(N(C)C)nn12` [BO-2768, (6-(Dimethylamino)-3-methylbenzo[g]pyrrolo[2,1-α]phthalazine-1,2-diyl)dimethanol], the IC50 in data set [1] was determined as 190 ± 10 nM; in [3] (Table 2), 50 ± 1 nM; in data set [3] (Table 3) it was 40 ± 5 nM; in data set [4], 1020 ± 160 nM; in [5] it was 100 ± 10 nM; in the data set with colon cancer HCT-116, 650 ± 20 nM. In addition, the tumor growth entry in [2] (20 mg/kg twice per day, entire time of the study, FIG. 13, panel A) was “completely suppress the growth of tumor”. The “tumor growth, dose dependence” value in data set [2] (FIG. 13, panel A) is “suppressed tumor growth in a dose-dependent manner”. Also, in [2], the tumor size result is “growth of tumor was completely suppressed”. For the same compound, the “IC50 Paca SI” value in the data set with pancreatic cancer PacaS1 amounted to 3980 ± 1040 nM. The “resistance factor (IC50 CEM/VBL vs IC50 of the parent cell line)” value in [5] is reported as 0.53 ×. Also, the “formation of DNA interstrand crosslinks” value with pEGFP-N1 plasmid DNA is “induced DNA interstrand crosslinks”. Besides, the “body weight of the test animals” value in data set [6] (H211 xenograft mice, co-administration of BO-2768 and cisplatin, FIG. 14, panel B) was “without adversely affecting the body weight”. The “effects on the bodyweight of the test animals” value in data set [6] (H526 xenograft mice, 20 mg/kg twice per day, FIG. 13, panel B) was “without any deleterious effects on the bodyweight”. The “deleterious effects on the bodyweight of the test animals” value in data set [6] (H526 xenograft mice) is “none”.

The values are drawn from patent US11066412B2, “Substituted pyrrolo[2,1-a]phthalazines and benzo[g]pyrrolo[2,1-a]phthalazines for the treatment of cancer” (Academia Sinica, priority 2017, dated 2021).
